From patent US10577382B2, “Fused heterocyclic compound” (TAKEDA PHARMACEUTICAL COMPANY LIMITED, priority 2016, dated 2020)

Molecular target: T1, CLK2 enzyme (Homo sapiens, UniProt P49760)
T1 construct: purchased Thermo Fisher Scientific
Assay: Measurement of CLK2 inhibitory activity (LANCE time-resolved fluorescence, ULight-labeled MBP peptide)
Assay type: biochemical
Details: compound 1 μM; ATP 1 mM; read-out: CLK2 activity inhibition ratio at compound concentration of 1 μM (ATP 1 mM)
Experimental: A test compound dissolved in DMSO was added to a reaction solution (50 mM HEPES (pH: 7.5), 10 mM MgCl2, 1 mM EGTA, 2 mM DTT, 0.01% Tween 20, 0.01% BSA) containing a CLK2 enzyme (Thermo Fisher Scientific) and an ULight-labeled MBP peptide (PerkinElmer), and the mixture was then reacted at room temperature for 10 minutes. An ATP solution was added to a final concentration of 1 mM to initiate an enzyme reaction, and the reaction was carried out at room temperature for 60 minutes. A europium-labeled anti-phosphorylated MBP antibody (PerkinElmer) and a LANCE Detection buffer (PerkinElmer) containing EDTA with a final concentration of 20 mM were added to stop the reaction, the mixture was left standing for 60 minutes, and the time-resolved fluorescence value (excitation 320 nm, and emission 615 nm and 665 nm) was measured by Envision (PerkinElmer). The inhibition ratio (%) of CLK2 by the test compound was calculated in accordance with the following expression. Inhibition ratio (%)=(1−(count of test compound−blank)÷(control−blank))×100
The count of the CLK2 enzyme reaction solution without addition of the compound was described as a control, and the count without addition of the compound and addition of the CLK2 enzyme was described as a blank. The concentration at which the inhibition ratio was 50% was defined as an IC50 value.

T1 sequence (P49760 whole entry): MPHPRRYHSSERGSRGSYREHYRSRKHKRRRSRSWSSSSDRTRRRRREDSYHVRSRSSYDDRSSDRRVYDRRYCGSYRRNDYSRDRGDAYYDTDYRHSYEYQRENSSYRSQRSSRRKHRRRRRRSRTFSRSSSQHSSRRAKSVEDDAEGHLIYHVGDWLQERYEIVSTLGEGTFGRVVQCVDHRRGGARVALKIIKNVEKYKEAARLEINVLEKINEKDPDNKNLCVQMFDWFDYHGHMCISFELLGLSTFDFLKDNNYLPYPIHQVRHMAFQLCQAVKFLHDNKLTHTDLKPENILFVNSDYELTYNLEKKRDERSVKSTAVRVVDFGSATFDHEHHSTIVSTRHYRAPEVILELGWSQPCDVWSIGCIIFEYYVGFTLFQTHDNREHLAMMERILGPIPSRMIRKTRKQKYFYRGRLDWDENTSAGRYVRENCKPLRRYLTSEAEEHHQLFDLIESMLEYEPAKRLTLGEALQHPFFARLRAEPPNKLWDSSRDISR

inhibition at 1 µM: 100%
SMILES: COc1ncnn2ccc(-c3cnc4nc(C)n(Cc5nnc([C@@H](C)F)o5)c4c3)c12 [Example 286, 1-((5-((1R)-1-fluoroethyl)-1,3,4-oxadiazol-2-yl)methyl)-6-(4-methoxypyrrolo[2,1-f][1,2,4]triazin-5-yl)-2-methyl-1H-imidazo[4,5-b]pyridine]
